Results as given in PubChem BioAssay AID179 (DTP/NCI, 2004).
Calls of active or inactive are those of the source.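 Rule for the calls: active = compounds giving half or more protection of infected cells from virus-caused growth loss, again on retest; inactive = the rest.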

Test system: CEM cells HIV-1 protection, formazan growth assay
Experiment: NCI AIDS Antiviral Assay
Conditions: for IC50: measured here: growth of uninfected CEM cells
In short: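 Protection of CEM cells against HIV-1 measured as cell growth via soluble formazan read-out, with five concentrations tested on both infected and uninfected cells; failure to protect may reflect toxicity.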

Structure (SMILES)	EC50	IC50	outcome
CCOC(=O)CSc1nnc(CSc2nc(-c3ccccc3)c(-c3ccccc3)[nH]2)n1-c1ccccc1	> 13.5 µM	> 13.5 µM	–
Oc1c2cc(Cl)cc1COCc1cc(Cl)cc(c1O)COCc1cc(Cl)cc(c1O)COC2	> 200 µM	38.9 µM	–
COc1ccc(Nc2ccnc3cc(Cl)ccc23)cc1CCN	> 89.1 µM	> 89.1 µM	–
Cc1ccc(S(=O)(=O)n2c(-c3ccccc3)c(-c3ccccc3)c3ccccc32)cc1	> 50.1 µM	38.9 µM	–
COC(=O)CCC(C)C1CCC2[C@@H]3CC[C@@H]4CC(CSC(C)=O)CC[C@]4(C)C3CC[C@]12C (some centres undefined)	> 29.5 µM	> 29.5 µM	–
NC1=NS(=O)(=O)Nc2nc(-c3ccccc3)[nH]c21	> 20 µM	> 20 µM	–
S=c1oc(CCCCCCCCc2nn(CNc3ccccc3)c(=S)o2)nn1CNc1ccccc1	> 200 µM	> 200 µM	–
O=C1Oc2ccccc2C(=O)/C1=C/N1C(=O)N/C(=C\c2ccccc2O)C1=O	> 200 µM	123 µM	–
C[C@H]1O[C@@H](c2c(O)ccc3ccccc23)C[C@@H](N(C)C)C1O (some centres undefined)	> 200 µM	97.7 µM	–
O=C1OC2C3Cc4ccccc4N2C1C3 (centres undefined)	> 646 µM	363 µM	–
O=Nc1c(Br)cc(Br)c2ccc3c(Br)cc(Br)c(N=O)c3c12	> 50.1 µM	> 50.1 µM	–
O=C(Nc1ccc(Cl)cc1)NS(=O)(=O)c1coc2cc(F)ccc2c1=O	> 200 µM	63.1 µM	–
CC1(C)C(OC(=O)c2ccccc2)C[C@]23CCC[C@](C)(C[C@@H](O)C12)C3 (some centres undefined)	> 200 µM	24 µM	–
CC1=N/C(=C\c2cccc(F)c2)C(=O)O1	> 126 µM	> 126 µM	–
OCC1O[C@H](O[C@@H]2CCCN3CC(O)C(O)[C@@H]23)C(O)C(O)C1O (some centres undefined)	> 1580 µM	> 1580 µM	–
COc1ccc(C2c3cc4c(cc3OC(N3CCOCC3)C2C)OCO4)c(OC)c1OC (centres undefined)	> 200 µM	9.55 µM	–
O=[N+]([O-])c1ccc(C=Cc2ccc(C(F)(F)F)cc2)cc1.[C-]#[O+].[C-]#[O+].[C-]#[O+].[Cr]	–	–	inactive
N#C/C(=C\n1c(=S)[nH]c2ccc([N+](=O)[O-])cc21)c1cccc(Cl)c1	> 200 µM	120 µM	–
C/C(=N/N=C(\[O-])c1ccncc1)C(F)(F)F.C/C(=N\N=C(/[O-])c1ccncc1)C(F)(F)F.[Cu+2]	> 200 µM	18.2 µM	–
CCOP(=O)(OCC)C(Cc1c[nH]c2ccccc12)C(=O)O (centres undefined)	> 200 µM	> 200 µM	–
C1C2CC3C1C1CN3C21 (centres undefined)	> 724 µM	> 724 µM	–
COc1cc(C2c3cc(OC)c(OC)c(O)c3C(=O)C3CCC(=O)N32)cc(OC)c1OC (centres undefined)	> 100 µM	14.8 µM	–

Structure (SMILES)	EC50	IC50	outcome
CCCCc1ccc(OC2OC(CO)C(O)C(O)C2O)cc1 (centres undefined)	> 288 µM	–	–
CCCCCCCCCCCCCC(=O)O[C@@H]1[C@@H](C)[C@@]2(O)[C@@H](C=C(CO)C[C@]3(O)C(=O)C(C)=C[C@@H]23)[C@@H]2C(C)(C)[C@]12OC(C)=O	–	–	active
Nc1ncnc2c1ncn2C1OC(COC2C(O)C(OC3OC(CO)C(O)C(O)C3N)C(O)C(OS(=O)(=O)O)C2OC(=O)[C@@H](N)CO)C(O)C1O (some centres undefined)	> 200 µM	> 200 µM	–
Cn1c2c(c3ccccc31)C1C(=O)N(c3ccccc3)C(=O)C1CC2 (centres undefined)	> 57.5 µM	> 57.5 µM	–
CC(=O)/C=C(/C)[O-].CCN(CC)CCNCCN.O=N[O-].[Co+3].[O-][Cl+3]([O-])([O-])[O-]	> 200 µM	> 200 µM	–
COc1cc(Br)c(C=Nc2cccc3cc(OC)c(OC)cc23)cc1OC	> 31.6 µM	> 31.6 µM	–
CN1CN(C(=O)N2CN(C)C(=O)N(C)C2)CN(C)C1=O	> 158 µM	> 158 µM	–
C[Si](C)(C)OC1(C2=CCCC2)CCCC1CC#N (centres undefined)	> 955 µM	> 955 µM	–
CNC(=O)c1ncn(C2OC(CO)C(O)C2O)n1 (centres undefined)	> 200 µM	> 200 µM	–
C/C(O)=C(\C=N\C(N)=S)C(=O)Nc1ccc(Cl)cc1	> 200 µM	> 100 µM	–
CCn1cnnc1-c1nsc2ccccc12	> 81.3 µM	75.9 µM	–
CSC(=NCCc1c[nH]c2ccccc12)NC#N	> 200 µM	> 200 µM	–
CC1(C)CC(=O)C(/C=N/C(N)=S)=C(O)C1	> 200 µM	> 200 µM	–
CNc1c(Br)cc(/C=C2\C=Cc3ccccc32)cc1Br	> 9.55 µM	> 9.55 µM	–
O=C(Cc1ccccc1)NN1C(=O)C(Cl)C1c1cccc(O)c1 (centres undefined)	> 40.7 µM	15.5 µM	–
Fc1ccc(Nc2nc(Cl)c3[nH]cnc3n2)cc1Cl	> 200 µM	> 200 µM	–
CCCCCCc1nn2c(-c3ccncc3)nnc2s1	> 100 µM	52.5 µM	–
CC=C=CCN(C)Cc1ccccc1	> 324 µM	> 324 µM	–
O=C1C(=Cc2ccccc2[N+](=O)[O-])N=C(c2ccccc2)N1n1c(-c2ccccc2)nc2ccccc2c1=O	> 200 µM	29.5 µM	–
O=C(O)c1nc2ccc(C(F)(F)F)cc2nc1NCc1ccc(F)cc1	> 200 µM	15.8 µM	–
O=C1OC(C2(O)OC(=O)c3ccccc32)c2ccccc21 (centres undefined)	> 200 µM	> 200 µM	–
CC(C)CN1CC(=O)N2CCCC(C)N2C(=O)C1 (centres undefined)	> 200 µM	> 200 µM	–

Structure (SMILES)	EC50	IC50	outcome
CC(=O)NC1C(O)OC(CO)C(O)C1OC(C)C(=O)N[C@@H](CC(N)=O)C(=O)N[C@H](CCC(=O)O)C(N)=O (some centres undefined)	> 468 µM	219 µM	–
CCOc1ncn(-c2ccc(NC(=S)Nc3cccc(O)c3)cc2)n1	> 200 µM	> 200 µM	–
CCCCCCCCCCCCCCCCCCCCC(C(=O)OCC)S(=O)(=O)O (centres undefined)	> 100 µM	19.5 µM	–
O=C(CC(C(=O)c1cccs1)c1cccs1)c1ccccc1Cl (centres undefined)	> 200 µM	18.6 µM	–
CCOC(=O)c1c(C)[nH]c(=S)c(C#N)c1-c1ccc(OC)cc1	> 200 µM	81.3 µM	–
O=C(c1ccccc1)c1ccc(C(c2c(O)c3ccccc3oc2=O)c2c(O)c3ccccc3oc2=O)cc1	> 200 µM	34.7 µM	–
O=c1nc2sc3ccccc3c(=O)n2[nH]1	> 204 µM	77.6 µM	–
CCCCC(C)/C=C/C(=O)C1=C(O)/C(=C/C(=O)O)OC1=O (centres undefined)	302 µM	851 µM	–
S=C1NCCNC(=S)SS1	> 34.7 µM	> 34.7 µM	–
Nc1nnc(Cc2ccccc2[N+](=O)[O-])c(=O)[nH]1	> 29.5 µM	> 29.5 µM	–
Nc1c(N=Nc2ccc(/C=C/c3ccc(N=Nc4cc(S(=O)(=O)O)c5cccc(S(=O)(=O)O)c5c4N)cc3S(=O)(=O)O)c(S(=O)(=O)O)c2)cc(S(=O)(=O)O)c2cccc(S(=O)(=O)O)c12	8.71 µM	77.6 µM	–
CCCCCCCCCCCCCCCCCCOC(COP(=O)(O)OCC1CCC(n2cnc3c(=O)[nH]cnc32)O1)COP(=O)(O)OCC1OC(n2cc(C)c(=O)[nH]c2=O)CC1N=[N+]=[N-] (centres undefined)	1.17 µM	162 µM	–
Cc1c(-c2c(C)c(=O)c3c(C(C)C)c(=O)c(=O)c(C=O)c-3c2=O)c(O)c2c(C=O)c(O)c(O)c(C(C)C)c2c1O	> 13.2 µM	7.08 µM	–
CCCCN(S(=O)(=O)c1ccccc1)S(=O)(=O)c1ccccc1	> 200 µM	> 200 µM	–
CC1(C)OC2CC3COC(=O)C3CC2O1 (centres undefined)	> 1170 µM	> 1170 µM	–
CC(=O)OCC1OC(SC2=N/C(=C\c3ccc(Br)s3)C(=O)N2CN2CCOCC2)C(OC(C)=O)C(OC(C)=O)C1OC(C)=O (centres undefined)	> 200 µM	9.33 µM	–
O=C1C(=O)c2ccccc2C(O)=C1CCCc1ccc(Oc2ccccc2)cc1	–	–	inactive
CCOC(=O)c1nc2c3c(ncn2n1)Oc1c(c(-c2ccccc2)nn1-c1ccccc1)C3c1ccc(Cl)cc1 (centres undefined)	> 200 µM	> 200 µM	–
COc1ccc(C2C(C)C(=O)C(C)C(c3ccc(OC)cc3)N2N=O)cc1 (centres undefined)	> 19.5 µM	> 19.5 µM	–
CC1=C2[C@@H](c3ccccc3)C3C=CC2(c2ccccc23)N(C(=O)Nc2cccc3ccccc23)C1=O (some centres undefined)	> 5.75 µM	> 5.75 µM	–
O=[N+]([O-])c1cccc(C2N3CCCCC3[C@@H]3c4[nH]c5ccccc5c4CCN23)c1 (some centres undefined)	> 18.6 µM	> 18.6 µM	–
CC1=C(C(=O)Nc2cc(=O)n(C)c(=O)n2C)C(c2ccco2)C(C(=O)Nc2cc(=O)n(C)c(=O)n2C)=C(C)N1	> 93.3 µM	> 93.3 µM	–

Structure (SMILES)	EC50	IC50	outcome
CC12CCC(C(=O)OC1=O)C(C)(C)O2 (centres undefined)	> 200 µM	> 200 µM	–
Cc1cc(C)c(C2[C@H]3C(=O)N(c4ccc(Cc5ccc(N6C(=O)[C@@H]7ON(c8ccccc8)C(c8c(C)cc(C)cc8C)[C@@H]7C6=O)cc5)cc4)C(=O)[C@H]3ON2c2ccccc2)c(C)c1 (some centres undefined)	> 22.4 µM	> 22.4 µM	–
Nc1ncnc2c1ncn2C1CCC(COP(=O)(O)O)O1 (centres undefined)	20 µM	> 200 µM	–
Cc1c(N)c2ccccc2c(=O)n1C	> 1120 µM	302 µM	–
S=C(NC1CCCCC1)SSSSC(=S)NC1CCCCC1	> 91.2 µM	33.1 µM	–
CC(=O)OCC1OC(n2c(-c3ccccc3)c(N=Nc3ccccc3)c(C)c(C#N)c2=S)C(OC(C)=O)C(OC(C)=O)C1OC(C)=O (centres undefined)	> 200 µM	> 200 µM	–
Cc1nccnc1N1CCCCC1	> 200 µM	> 200 µM	–
O=C1NC(=S)N/C1=C\c1cccs1	> 200 µM	182 µM	–
O=C1OCCN1c1ccccc1	> 1100 µM	> 1100 µM	–
C/C(=N\O)c1ccc(OCc2cc(C(F)(F)F)cc(C(F)(F)F)c2)cc1	> 200 µM	40.7 µM	–
O=C(c1ccc(Cl)cc1)c1cnc(Nc2ccccc2Cl)s1	> 10.7 µM	> 10.7 µM	–
CCC1CCc2c(OC)ccc(OCC(=O)O)c2C1=O (centres undefined)	–	–	inactive
COC(=O)CC1C(C)(C)C(=O)C2CC3=C4CC(=O)OC(c5ccoc5)C4(C)CCC3C1(C)C2=O (centres undefined)	> 55 µM	> 55 µM	–
CCCN=c1ssc(=O)n1CCC	> 200 µM	11.2 µM	–
C=C(CS(=O)(=O)c1ccccc1)C(=O)OCC	–	–	inactive
Nc1sccc1S(=O)(=O)c1ccsc1N	> 200 µM	87.1 µM	–
CS(=O)(=O)N1CC(CI)c2ccc(O)cc21 (centres undefined)	> 200 µM	2.4 µM	–
NP(N)(=O)Nc1ccccc1	10.5 µM	> 200 µM	–
Nc1c(S(=O)(=O)O)[nH]c(=O)[nH]c1=O	> 200 µM	> 200 µM	–
